Earlier results on 1 compound are cited in patent US20170135989A1, “ALLISARTAN ISOPROXIL SOLID DISPERSION AND PHARMACEUTICAL COMPOSITION” (SHENZHEN SALUBRIS PHARMACEUTICALS CO., LTD, priority 2014, published 2017).

The target of one data set is T1, angiotensin II receptor (Homo sapiens, UniProt P30556).
T1 sequence (P30556 1-359): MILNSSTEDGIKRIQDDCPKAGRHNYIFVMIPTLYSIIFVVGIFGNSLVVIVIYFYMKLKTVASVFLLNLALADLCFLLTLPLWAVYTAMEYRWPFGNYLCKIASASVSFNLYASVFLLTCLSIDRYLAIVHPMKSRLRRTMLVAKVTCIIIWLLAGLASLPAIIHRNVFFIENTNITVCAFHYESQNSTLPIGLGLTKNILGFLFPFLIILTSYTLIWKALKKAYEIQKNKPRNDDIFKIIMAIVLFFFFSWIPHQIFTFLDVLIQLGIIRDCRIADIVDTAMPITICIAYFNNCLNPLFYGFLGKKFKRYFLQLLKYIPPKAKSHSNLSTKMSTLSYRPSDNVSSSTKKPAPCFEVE
The conditions noted are these: from CN200680000397.8; compared with products of the same type (such as losartan).

The conditions of data set [1]: from CN200680000397.8.

Take `CCCCc1nc(Cl)c(C(=O)OCOC(=O)OC(C)C)n1Cc1ccc(-c2ccccc2-c2nnn[nH]2)cc1` [Allisartan isoproxil, 2-butyl-4-chloro-1-[2′-(1H-tetrazol-5-yl)-1,1′-biphenyl-methyl]-imidazole-5-carboxylic acid, 1-[(isopropoxy)-carbonyloxy]-, methyl ester]: the Solubility in water entry was “low”. The Antihypertensive effect entry on angiotensin II receptor was “better antihypertensive effect than products of the same type”. Further, the Toxicity result in data set [1] is recorded as “low toxicity”.
